Experimental findings from patent US11358953B2, “Functionalized peptides as antiviral agents” (ENANTA PHARMACEUTICALS, INC., priority 2020, dated 2022) are described below.

Molecules are shown by their SMILES.

The target in the assay is SARS-CoV-2 3CL-protease (Severe acute respiratory syndrome coronavirus 2 (2019-nCoV) (SARS-CoV-2), UniProt P0DTD1). Briefly: SARS-CoV-2 3C-like (3CL) protease fluorescence assay (FRET). Type of assay: biochemical. The following applies: recombinant SARS-CoV-2 3CL-protease 10 nM, 30 min preincubation at RT, substrate 40 μM, duplicate.
`CC1(C)[C@@H]2[C@@H](C(=O)N[C@H](C#N)C[C@@H]3CCNC3=O)N(C(=O)c3cc4c(F)ccc(F)c4[nH]3)C[C@@H]21` [Ex20, (1R,2S,5S)—N—((S)-1-cyano-2-((S)-2-oxopyrrolidin-3-yl)ethyl)-3-(4,7-difluoro-1H-indole-2-carbonyl)-6,6-dimethyl-3-azabicyclo[3.1.0]hexane-2-carboxamide]: the IC50 was in the range of 100 to 1000 nM. On to `CC1(C)[C@@H]2[C@@H](C(=O)N[C@H](C#N)C[C@@H]3CCNC3=O)N(C(=O)c3cc4c(Cl)cccc4[nH]3)C[C@@H]21` [Ex21, (1R,2S,5S)-3-(4-chloro-1H-indole-2-carbonyl)-N—((S)-1-cyano-2-((S)-2-oxopyrrolidin-3-yl)ethyl)-6,6-dimethyl-3-azabicyclo[3.1.0]hexane-2-carboxamide], for which the IC50 was 100 to 1000 nM. Turning to `CC1(C)[C@@H]2[C@@H](C(=O)N[C@H](C#N)C[C@@H]3CCNC3=O)N(C(=O)c3cc4c(Cl)cccc4o3)C[C@@H]21` [Ex22, (1R,2S,5S)-3-(4-chlorobenzofuran-2-carbonyl)-N—((S)-1-cyano-2-((S)-2-oxopyrrolidin-3-yl)ethyl)-6,6-dimethyl-3-azabicyclo[3.1.0]hexane-2-carboxamide], the IC50 is more than 1000 nM. Next, `CC(C)(C)[C@H](NC(=O)C1CCCC1)C(=O)N1C[C@H]2[C@@H]([C@H]1C(=O)N[C@H](C#N)C[C@@H]1CCNC1=O)C2(C)C` [Ex23, (1R,2S,5S)—N—((S)-1-cyano-2-((S)-2-oxopyrrolidin-3-yl)ethyl)-3-((S)-2-(cyclopentanecarboxamido)-3,3-dimethylbutanoyl)-6,6-dimethyl-3-azabicyclo[3.1.0]hexane-2-carboxamide]: less than 100 nM; `CC(C)(C)[C@H](NC(=O)Cc1ccccc1)C(=O)N1C[C@H]2[C@@H]([C@H]1C(=O)N[C@H](C#N)C[C@@H]1CCNC1=O)C2(C)C` [Ex24, (1R,2S,5S)—N—((S)-1-cyano-2-((S)-2-oxopyrrolidin-3-yl)ethyl)-3-((S)-3,3-dimethyl-2-(2-phenylacetamido)butanoyl)-6,6-dimethyl-3-azabicyclo[3.1.0]hexane-2-carboxamide]: less than 100 nM. For the compound `CC(C)(C)[C@H](NC(=O)C1CCCCC1)C(=O)N1C[C@H]2[C@@H]([C@H]1C(=O)N[C@H](C#N)C[C@@H]1CCNC1=O)C2(C)C` [Ex25, (1R,2S,5S)—N—((S)-1-cyano-2-((S)-2-oxopyrrolidin-3-yl)ethyl)-3-((S)-2-(cyclohexanecarboxamido)-3,3-dimethylbutanoyl)-6,6-dimethyl-3-azabicyclo[3.1.0]hexane-2-carboxamide], the IC50 was less than 100 nM. The figure for `CCC(=O)N[C@H](C(=O)N1C[C@H]2[C@@H]([C@H]1C(=O)N[C@H](C#N)C[C@@H]1CCNC1=O)C2(C)C)C(C)(C)C` [Ex26, (1R,2S,5S)—N—((S)-1-cyano-2-((S)-2-oxopyrrolidin-3-yl)ethyl)-3-((S)-3,3-dimethyl-2-propionamidobutanoyl)-6,6-dimethyl-3-azabicyclo[3.1.0]hexane-2-carboxamide] is less than 100 nM. Regarding `CC(C)C(=O)N[C@H](C(=O)N1C[C@H]2[C@@H]([C@H]1C(=O)N[C@H](C#N)C[C@@H]1CCNC1=O)C2(C)C)C(C)(C)C` [Ex27, (1R,2S,5S)—N—((S)-1-cyano-2-((S)-2-oxopyrrolidin-3-yl)ethyl)-3-((S)-2-isobutyramido-3,3-dimethylbutanoyl)-6,6-dimethyl-3-azabicyclo[3.1.0]hexane-2-carboxamide], the IC50 was less than 100 nM.

For the compound `CC(C)(C)C(=O)N[C@H](C(=O)N1C[C@H]2[C@@H]([C@H]1C(=O)N[C@H](C#N)C[C@@H]1CCNC1=O)C2(C)C)C(C)(C)C` [Ex28, (1R,2S,5S)—N—((S)-1-cyano-2-((S)-2-oxopyrrolidin-3-yl)ethyl)-3-((S)-3,3-dimethyl-2-pivalamidobutanoyl)-6,6-dimethyl-3-azabicyclo[3.1.0]hexane-2-carboxamide], the IC50 was less than 100 nM. For the compound `CC(=O)N[C@H](C(=O)N1C[C@H]2[C@@H]([C@H]1C(=O)N[C@H](C#N)C[C@@H]1CCNC1=O)C2(C)C)C(C)(C)C` [Ex29, (1R,2S,5S)-3-((S)-2-acetamido-3,3-dimethylbutanoyl)-N—((S)-1-cyano-2-((S)-2-oxopyrrolidin-3-yl)ethyl)-6,6-dimethyl-3-azabicyclo[3.1.0]hexane-2-carboxamide], the IC50 was less than 100 nM.

A word on the IC50: it is the concentration that inhibits the measured activity by half.
